What was measured:
[1] = tested on: HepG2, a hepatocarcinoma cell line; test: Impedance assay (xCELLigence, Cell Index), HepG2; type: cell-based; settings: for effect on cell impedance: HepG2, 100 μM to 1.5 μM
Method: (§1) PTA or Compound 10 were added ranging from 100 μM to 1.5 μM to the cells after […]. The apparent IC50 after 72 hours of drug treatment was calculated and is shown in the inset of each graph of the triplicate impedance measurement per concentration. The DMSO vehicle control is shown as dark red line.
(§2) MCF-7 cells were maintained in RPMI media supplemented with 10% fetal bovine serum. HepG2 cells were maintained in Dulbecco's modified Eagle medium (DMEM, Invitrogen) media supplemented with 10% fetal bovine serum and 1×MEM non-essential amino acids. For cytotoxicity experiments, cells were plated on T-75 flasks and grown until they reached at 70-80% confluency.
(§3) Cell proliferation was monitored in real-time cell electronic sensing (xCELLigence System, Acea Biosciences) through gold microelectrode arrays on the bottom of 96 E-Plates. 100 μl of corresponding culture media was added into each well of 96 E-Plates, which inserted into the station and background measurement was taken. Then, cells (5,000 cells/well in 100 μl) were seeded into 96 E-Plates containing 100 μl medium/well. After about 20 hours, 200 μl medium was discarded and replaced with 100 μl of fresh medium containing indicated amounts of compounds for each well. In the xCELLigence System the changes in cell number are detected as modifications in the measurement of electrical impedance and are represented as Cell Index (CI).
(§4) To define the range of metastasizing cancer cell lines susceptible to PTA derivatives of the present invention, we can use the HUVEC electrical-impedance assay. Invasive tumor cell lines are monitored through electric impedance measurements of human umbilical vein endothelial cells (HUVEC) monolayers in the presence of PTA derivatives. […] The invasion potential of the tumor cell is measured by the change in cell impedance as the HUVEC monolayer junctions are compromised by the invading tumor cells. Cells can be monitored over multiple days while the real-time impedance is recorded. […]

[2] = tested on: MCF-7, a breast cancer cell line; test: Impedance assay (xCELLigence, Cell Index), MCF-7; type: cell-based; settings: for effect on cell impedance: MCF-7, 100 μM to 1.5 μM
Method: as §1, §2, §3, §4

PfAtg8 [3] = target: T1, PfAtg8 (Plasmodium falciparum, UniProt Q8IJK2); test: SPR binding of purified PfAtg8 to PTA immobilized on an SPR chip; settings: comparison of hLC3 with PfAtg8
T1 sequence (Q8IJK2 1-124): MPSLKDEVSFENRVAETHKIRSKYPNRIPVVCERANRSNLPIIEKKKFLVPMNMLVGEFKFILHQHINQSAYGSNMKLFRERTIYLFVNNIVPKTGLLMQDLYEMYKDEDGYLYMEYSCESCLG
From the text: (§5) FIGS. 2A-2C depict the properties of the PTA-binding site on hLC3. 2A) Energy-minimized docking pose of PTA to hLC3. The pyridinylthiazolamine ringsystem predominantly binds to the W-site of hLC3. 2B) Conservation of amino acids between hLC3 and Plasmodium Atg8. Shown in yellow sticks is the bound peptide of Atg3. The W-Site is highly conserved, whereas the L-site is less conserved, explaining the lower affinity of hLC3 to PTA (FIGS. 2A, 2B adapted from Hain et al. 2013). 2C) Direct binding interaction of purified hLC3 or PfAtg8 to PTA immobilized on a SPR chip to determine their respective affinities.
(§6) In comparing the sequence conservation of this W-/L-site between PfAtg8 and hLC3, it is apparent that the W-site has maintained a higher degree of conservation, as indicated by the magenta patch in FIG. 2B. To test whether or not the W-/L-site of Atg8 was indeed the interaction area to which our small molecules bind, we performed SPR binding studies with different Atg8-homologs, essentially mimicking mutational studies in the environment of the W-/L-site. This allowed us to explore the key features of the binding site in a manner that was much more efficient than introducing multiple single point mutations for each protein of interest at a time.
(§7) SPR studies were performed on PfAtg8 and hLC3 binding to the PTA molecule immobilized on an SPR chip. […]

HC-04 liver cells = test: Cytotoxicity in HC-04 liver cells; type: cell-based; settings: 30 μM PTA for 96 hours
HCT8 colon cancer cells = test: PTA-susceptibility of HCT8 colon cancer cells: microscopy and anti-LC3 Western blot; type: cell-based, human; settings: 24 hours
From the text: FIG. 4 provides an anti-LC3 Western blot of PTA treated HCT8 colon cancer cells with corresponding Coomassie stained 4-20% SDS-PAGE. The arrows indicate the band used for quantification with ImageJ. The SDS gel indicates approximate equal amounts were loaded per lane.
To be functional in autophagy processes, hLC3 undergoes two critical activation processes. First a C-terminal glycine has to be exposed through proteolytic cleavage by the […] protease Atg4. Second, a lipid, phosphatidylethanolamine (PE), is conjugated to the C-terminal glycine residue resulting in hLC3-PE (hLC3-II). The inventors previously discovered 4-formyl-N-(4-pyridin-2-yl-1,3-thiazol-2-yl)benzamide (PTA) as an autophagy inhibitor in their studies on the plasmodial system in search of protein-protein interaction inhibitors of the PfAtg8-PfAtg3 interaction, the homologous system in the malaria parasite. The lipidated form of either Atg8 or hLC3 (hLC3-II) can be resolved from the unlipidated form (hLC3-I) using SDS-PAGE due to their different migration speeds. Specific commercial antibodies for hLC3 detection were used in these studies to quantify the two species via Western blot in treated and untreated cancer cell lines.
We used a DMSO-vehicle control. All experiments were carried out at 1% final DMSO concentration for 24 hours at 37° C. and 5% CO2. […] The DMSO control sample was trypsinized to detach the cells from the culture dish. All cells were collected and spun down before resuspending them in SDS-loading dye for SDS-PAGE and Western blot analysis. Commercial monoclonal antibodies directed against hLC3 (D3U4C Rabbit mAB) and GAPDH (14C10 Rabbit mAB) as loading control were used. The Western blot clearly distinguishes between the un-lipidated (hLC3-I) and lipidated (hLC3-II) form by their migration speed in the SDS-gel (FIG. 4). The lipidated form migrates faster in an SDS-gel due to its additional negative charge from the conjugated phospholipid. […] 0.5% DMSO will be used as a vehicle control and 33 nM Wortmannin as a positive control for autophagy inhibition.

[4] = tested on: hLC3 with hAtg3 interaction; test: hLC3/hAtg3 protein-protein interaction in vitro; type: binding, human
Method: Our structural understanding of how the hLC3 binds the PTA-scaffold combined with surface plasmon resonance (SPR)-interaction studies, has enabled the inventors to design the PTA-analogs of the present invention with low Koff-rates. […] These new PTA-analogs are tested in SPR-based assays with purified recombinant hLC3 and hAtg3 to assess their ability to prevent the protein-protein interaction. Newly emerging molecules from our efforts are subjected to dose-dependent cell based screening with our cancer line collection.
About 120 PTA-homologs were identified in the PubChem database (pubchem.ncbi.nlm.nih.gov) that are available through commercial vendors. In a first assessment to determine which homologs to focus on initially, virtual library screening was performed with the known hLC3 structures (1UGM, 3ECI, 3WAL, 3WAO). Comparing the docking results from different structures of hLC3 allowed us to assemble a short list of nine high priority compounds (compounds 1-9). […] Two complementary assays will be utilized, the first assesses the small molecule's ability to block the protein-protein interaction of hLC3 with hAtg3. The second assay is used to directly measure the binding of the small molecule to immobilized hLC3 on an SPR chip, which will allow us to draw conclusions about the physical interaction between the two binding partners.

hLC3 = test: SPR binding of purified hLC3 to PTA immobilized on an SPR chip; design: species or system human; settings: read-out: affinity of hLC3 to PTA on the SPR chip
From the text: as §5, §6, §7

PfAtg8 [5] = target: PfAtg8 (Plasmodium falciparum, UniProt Q8IJK2); test: Surface plasmon resonance (SPR): direct binding of purified PfAtg8 to PTA immobilized on an SPR chip; settings: W-/L-site, FIG. 3, read-out: PfAtg8 Kd (binding affinity to PTA)
From the text: as §5
To maintain the identical view, residue differences were painted onto the PfAtg8 structure. Residues in the proximity of the W-/L-site of hLC3 lead to lower binding affinities of our current molecule targeting the Atg8-Atg3 interaction.
as §6, with “This allowed us to explore the key features of the binding site in a manner that was much more efficient than introducing multiple single point mutations for each protein of interest at a time.” left out

SMILES | effect on cell impedance [1] | effect on cell impedance [2] | binding affinity to immobilized PTA, hLC3 versus PfAtg8 (PfAtg8 [3]) | cytotoxic effect / tolerability (HC-04 liver cells) | cell appearance by microscopy at lowest concentration (HCT8 colon cancer cells; HCT8, 6.75 μM PTA) | hLC3 lipidation (hLC3-I / hLC3-II bands) in Western blot (HCT8 colon cancer cells; HCT8, PTA treated) | cell appearance by microscopy (HCT8 colon cancer cells; HCT8, about 100 μM to 6.25 μM PTA, 1% DMSO) | IC50 ([1]; Homo sapiens, HepG2, impedance, 100 μM to 1.5 μM, 72 hours, read-out: apparent IC50 after 72 hours of drug treatment) | prevention of protein-protein interaction of hLC3 with hAtg3 [4] | Kd (hLC3) | Kd (PfAtg8 [5]) | IC50 ([2]; MCF7a, MCF-7, impedance, 100 μM to 1.5 μM, 72 hours, read-out: apparent IC50 after 72 hours of drug treatment)
COC(OC)c1ccc(C(=O)Nc2ncc(-c3ccccn3)s2)cc1 [Compound 10] | concentration dependent effect | concentration dependent effect | – | – | – | – | – | – | – | – | – | –
O=Cc1ccc(C(=O)Nc2nc(-c3ccccn3)cs2)cc1 [PTA, 4-formyl-N-(4-pyridin-2-yl-1,3-thiazol-2-yl)benzamide] | concentration dependent effect | concentration dependent effect | decrease of binding affinity for hLC3 versus PfAtg8 | well tolerated | a few patches of attached cells still visible | accumulation of the slower migrating hLC3-I band is visible | detached, blebbing cells with a concentration dependent phenotype | ~18 µM | specifically prevents the protein-protein interaction of hLC3 with hAtg3 | 18 µM | 0.54 µM | ~18 µM

From US10059702B2, “Inhibitors of LC3/ATG3 interaction and their use in the treatment of cancer” (THE JOHNS HOPKINS UNIVERSITY, priority 2014, dated 2018)
